The source of these data is patent publication US9980943B2, “Methods of treating muscular dystrophy” (BOARD OF REGENTS OF THE NEVADA SYSTEM OF HIGHER EDUCATION, …, priority 2013, dated 2018).

Structures are written as SMILES.

What all share (assay type): cell-based, mouse
Assay [1] concerns α7 integrin (LacZ reporter in α7βgal+/− myoblasts). The assay can be described thus: Myoblast α7+/LacZ integrin FDG assay (Burkin assay in myoblasts, 96-well). As to conditions: α7+/LacZ myoblasts, 96-well.
The test system of assay [2] is α7 integrin (LacZ reporter in α7+/LacZ myotubes). Put plainly: Myotube α7 integrin FDG assay (Burkin assay in myotubes, 96-well). As to conditions: myotubes.
The subject of assay [3] is β-galactosidase in CMV-LacZ C2C12 myoblasts. The assay can be described thus: CMV-LacZ secondary screen in C2C12 myoblasts (β-Gal stabilizing assay). The following applies: CMV-LacZ C2C12 myoblasts. Summed up: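 A secondary screen identifies compounds that stabilize β-gal independently of the native promoter, using CMV-LacZ C2C12 cells. Curves span 0.5–40 μM at six levels, in duplicate.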

In assay [4] the test system is β-galactosidase in CMV-LacZ C2C12 myotubes. The assay can be described thus: CMV-LacZ secondary screen in C2C12 myotubes (β-Gal stabilizing assay). As to conditions: C2C12 CMV-LacZ myotubes, fold relative to DMSO. The essentials: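 First, C2C12 myoblasts were transfected with a linearized CMV-LACZ vector and clonal lines selected by FDG β-gal assay. Then cells were exposed to compounds at 0.5, 1, 5, 10, 20 and 40 μM in 96-well format, two replicates each, and β-gal measured.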

Turning to `O=C1CCC(C(=O)N2CCSCC2)CN1Cc1ccc(Cl)cc1` (stereo not drawn) [MLS001090787-01], the “Burkin Assay in Myoblasts, signal relative to DMSO” value came to 1.142 in assay [1] (0.5 uM); 0.9734 in assay [1] (1 uM); 1.263 in assay [1] (5 uM); 1.46 in assay [1] (10 uM); 1.265 in assay [1] (20 uM); 1.222 in assay [1] (40 uM). Besides, the “Burkin Assay in Myotubes, α7 integrin LacZ reporter signal relative to DMSO” value in assay [2] (0.5 uM) came to 1.054; in assay [2] (1 uM) it was 1.168; in assay [2] (5 uM) it was 1.083; in assay [2] (10 uM), 1.195; in assay [2] (20 uM), 1.209; in assay [2] (40 uM) it was 1.5544. The “CMV-LACZ in Myoblasts (β-galactosidase activity relative to DMSO)” value in assay [3] (0.5 uM) is given as 0.9196; in assay [3] (1 uM), 0.9754; in assay [3] (5 uM), 0.9700; in assay [3] (10 uM), 0.8594; in assay [3] (20 uM), 0.7533; in assay [3] (40 uM) it was 0.5907. Besides, the “CMV-LACZ in Myotubes, signal relative to DMSO” value in assay [4] (0.5 uM) is 1.0009; in assay [4] (1 uM), 0.9055; in assay [4] (5 uM), 1.0126; in assay [4] (10 uM) it was 1.1178; in assay [4] (20 uM), 0.8990; in assay [4] (40 uM), 0.9450.
For the molecule `Cc1ccc(C(=O)N2CCN(S(=O)(=O)N3CCOCC3)CC2)cc1` [MLS000663185-01], the “Burkin Assay in Myoblasts, signal relative to DMSO” value in assay [1] (0.5 uM) is on record as 1.109; in assay [1] (1 uM), 0.9744; in assay [1] (5 uM), 1.399; in assay [1] (10 uM), 0.9312; in assay [1] (20 uM), 0.9222; in assay [1] (40 uM), 0.8328. Moreover, the “Burkin Assay in Myotubes, α7 integrin LacZ reporter signal relative to DMSO” value in assay [2] (0.5 uM) amounted to 0.968; in assay [2] (1 uM) it was 0.8137; in assay [2] (5 uM) it was 0.9767; in assay [2] (10 uM), 1.0708; in assay [2] (20 uM) it was 0.7791; in assay [2] (40 uM), 1.118. For the same molecule, the “CMV-LACZ in Myoblasts (β-galactosidase activity relative to DMSO)” value in assay [3] (0.5 uM) is recorded as 1.1390; in assay [3] (1 uM), 1.1477; in assay [3] (5 uM), 0.9688; in assay [3] (10 uM), 0.8567; in assay [3] (20 uM), 0.9211; in assay [3] (40 uM), 0.9347. The “CMV-LACZ in Myotubes, signal relative to DMSO” value is 1.0924 in assay [4] (0.5 uM); 0.9800 in assay [4] (1 uM); 0.9322 in assay [4] (5 uM); 0.8722 in assay [4] (10 uM); 0.9540 in assay [4] (20 uM); 1.1270 in assay [4] (40 uM).
